From article PMC7619385 (ACS infectious diseases, 2025)
Read-outs that look alike come from different tables or passages of the source.

Target: T1, LmxCLK1 (Leishmania mexicana, UniProt E9AMP2)
T1 sequence (E9AMP2 1-422): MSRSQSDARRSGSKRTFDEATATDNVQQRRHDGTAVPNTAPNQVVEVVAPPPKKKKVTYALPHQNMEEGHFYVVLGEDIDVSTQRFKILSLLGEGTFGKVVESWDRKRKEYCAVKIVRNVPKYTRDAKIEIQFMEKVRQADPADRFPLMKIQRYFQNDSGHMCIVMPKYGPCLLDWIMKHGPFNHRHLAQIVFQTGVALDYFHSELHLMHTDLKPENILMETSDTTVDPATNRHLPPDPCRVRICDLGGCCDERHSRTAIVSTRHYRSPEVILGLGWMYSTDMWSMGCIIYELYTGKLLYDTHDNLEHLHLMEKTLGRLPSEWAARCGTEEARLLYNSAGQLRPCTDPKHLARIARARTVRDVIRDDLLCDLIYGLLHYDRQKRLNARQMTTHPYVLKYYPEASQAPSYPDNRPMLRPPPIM
Assay: biochemical
Format: binding

[1] = DSF, 10 µM compound, 2 µM LmxCLK1, Run 1
[2] = DSF, 10 µM compound, 2 µM LmxCLK1, Run 2
[3] = DSF, 10 µM compound, 2 µM LmxCLK1, mean of two runs
[4] = DSF, 10 µM compound, 2 µM LmxCLK1, Run 1, read-out: ΔTm Run 1
[5] = DSF, 10 µM compound, 2 µM LmxCLK1, Run 2, read-out: ΔTm Run 2
[6] = DSF, 10 µM compound, 2 µM LmxCLK1, mean of two runs, read-out: ΔTm Average

SMILES	ΔTm Run 1 [1]	ΔTm Run 2 [2]	ΔTm Average [3]	ΔTm at 10 µM [4]	ΔTm at 10 µM [5]	ΔTm at 10 µM [6]	also measured
COc1ccc2cc(-c3nc(-c4ccc([S+](C)[O-])cc4)[nH]c3-c3ccncc3)ccc2c1 (stereo not drawn) [Tie2 kinase inhibitor]							ΔTm Average: 0.1 °C; ΔTm Run 1: 0.1 °C; ΔTm Run 2: 0 °C
CNC(=O)c1c(F)cccc1Nc1nc(Nc2cc3c(cc2OC)CCN3C(=O)CN(C)C)nc2[nH]ccc12 [GSK1838705A]							ΔTm Average: -0.2; ΔTm Run 1: -0.1; ΔTm Run 2: -0.3
COc1ncccc1-c1cnn2ccc(N3CCN(C(=O)OC(C)C)CC3)nc12 [LP-935509 (AAK1)]	-0.2 °C	-0.4 °C	-0.3 °C				
CC(C)(C#N)c1ccc(N2C(=O)OCc3cnc4ccc(-c5cnc6ccccc6c5)cc4c32)cc1 [ETP-46464]	0.3 °C	-0.4 °C	-0.1 °C				
NCC(=O)Nc1ccc(-n2nc(C(F)(F)F)cc2-c2ccc3c(ccc4ccccc43)c2)cc1 [OSU-03012 (AR-12)]	-0.1 °C	0.2 °C	0.0 °C				
CN([C@@H](Cc1ccc(OS(=O)(=O)c2cccc3cnccc23)cc1)C(=O)N1CCN(c2ccccc2)CC1)S(=O)(=O)c1cccc2cnccc12 [KN-62]							ΔTm Average: -0.3; ΔTm Run 1: -0.4; ΔTm Run 2: -0.2
CNC(=O)c1ccccc1Sc1ccc2c(/C=C/c3ccccn3)n[nH]c2c1 [Axitinib]				0.6 °C	0.4 °C	0.5 °C	
N#CCNC(=O)c1ccc(-c2ccnc(Nc3ccc(N4CCOCC4)cc3)n2)cc1 [CYT387]				0 °C	-0.1 °C	0 °C	
Oc1c2ccccc2c2c3c(cccc13)N=N2 [SP600125]				0.1 °C	-0.3 °C	-0.1 °C	
COC(=O)Nc1ccc(-c2nc(N3CCOCC3)c3cnn(C4CCN(C(=O)OC)CC4)c3n2)cc1 [WYE-354]	-0.1 °C	-0.2 °C	-0.1 °C				
CCn1c(=O)c(-c2cc[nH]n2)cc2c(C)nc(N)nc21 [SAR245409 (XL765)]	0.1 °C	-0.2 °C	0.0 °C				
CC(C)(C)Cn1c(N)nc2ccc(-c3[nH]c(C(C)(C)C)nc3-c3ccc(F)cc3)nc21 [LY2228820]				-0.3 °C	-0.3 °C	-0.3 °C	
COc1ccc(-c2ccc3ncc4c(c3c2)n(-c2ccc(N3CCNCC3)c(C(F)(F)F)c2)c(=O)n4C)cn1 [BGT226 (NVP-BGT226)]	0.9 °C	0.7 °C	0.8 °C				
Cc1ccc(Nc2nccc(N(C)c3ccc4c(C)n(C)nc4c3)n2)cc1S(N)(=O)=O [Pazopanib]				0.1 °C	-0.4 °C	-0.2 °C	
Cn1cnc2c(F)c(Nc3ccc(Br)cc3F)c(C(=O)NOCCO)cc21 [MEK162 (ARRY-162)]	-0.2 °C	-0.4 °C	-0.3 °C				
CN(C)CCSSCCNC(=O)C1CCN(C(=O)CSc2ccc(Cl)cc2)CC1 [6H05]							ΔTm Average: -0.1; ΔTm Run 1: 0.1 °C; ΔTm Run 2: -0.2
CS(=O)(=O)N1CCN(Cc2cc3nc(-c4cccc5[nH]ncc45)nc(N4CCOCC4)c3s2)CC1 [GDC-0941]				0.1 °C	0 °C	0.1 °C	
C#Cc1cccc(Nc2ncnc3cc(OC)c(OCCCCCCC(=O)NO)cc23)c1 [CUDC-101]				0.4 °C	0.2 °C	0.3 °C	
COc1ccc(C(=O)Nc2sc3c(c2C(N)=O)CCCC3)cc1OC [TCS 359]	0.0 °C	0.0 °C	0.0 °C				
CN1CCN(c2cccc(Nc3nc4c(-c5ccc(S(C)(=O)=O)cc5)cccn4n3)c2)CC1 [CEP-33779]	0.5 °C	0.5 °C	0.5 °C				
COc1ccc(S(=O)(=O)N(C(C)=O)c2ccccc2/C=C/c2cc[n+]([O-])cc2)cc1 [HMN-214]				0.4 °C	0.1 °C	0.2 °C	
CNC(=O)Nc1ccc(-c2nc(N3CC4CCC(C3)O4)c3cnn(C4CCC5(CC4)OCCO5)c3n2)cc1 [WYE-125132 (WYE-132)]	0.2 °C	-0.1 °C	0.0 °C				
